Laboratory results taken from patent publication US20130023553A1, “PEGYLATED OPIOIDS WITH LOW POTENTIAL FOR ABUSE AND SIDE EFFECTS” (Nektar Therapeutics, priority 2010, published 2013).
Like-named read-outs stand apart in the source and are kept apart here.

How the values were obtained:
human mu opioid receptor [1] = target: T1, human mu opioid receptor (Homo sapiens, UniProt P35372); assay: biochemical; type: binding
T1 construct: expressed in transfected cells; host or cells: CHO cells
Procedure: Radioligand displacement was measured using scintillation proximity assays (SPA).
Briefly, serial dilutions of the test compounds were placed in a 96-well plate to which were added SPA beads, membrane and radioligand. The assay conditions for each opioid receptor subtype are described in Table 10 below. The plates were incubated for 8 hours-overnight at room temperature, spun at 1000 rpm to pellet the SPA beads, and radioactivity was measured using the TopCount® microplate Scintillation counter. Specific binding at each concentration of test compound was calculated by subtracting the non-specific binding measured in the presence of excess cold ligand. IC50 values were obtained by non-linear regression of specific binding versus concentration curves and Ki values were calculated using Kd values that were experimentally pre-determined for each lot of membrane preparations.

human mu opioid receptor [2] = target: T1, human mu opioid receptor; assay: cell-based; conditions: for Emax: read-out: % max effect, mu opioid receptor
Procedure: Studies were conducted in CHO cells heterologously expressing the cloned human mu, kappa or delta opioid receptors. cAMP was measured using a cAMP HiRange homogenous time-resolved fluorescence assay (HTRF Assay), that is based on a competitive immunoassay principle (Cisbio, Cat.#62AM6PEC).
Briefly, suspensions of cells expressing either the mu, kappa or delta opioid receptors were prepared in buffer containing 0.5 mM isobutyl-methyl xanthine (IBMX). […] EC50 values were calculated for each compound from a sigmoidal dose-response plot of concentrations versus maximum response. To determine if the compounds behaved as full or partial agonists in the system, the maximal response at the highest tested concentrations of compounds were compared to that produced by a known full agonist.

[3] = Pharmacokinetics following intravenous (IV) dosing; type: in vivo, Sprague-Dawley rats; conditions: for AUC / AUC(0-inf) / MRT last / clearance / Cmax / half-life / Vd: male, Sprague-Dawley, rat, plasma; for Cmax: read-out: Cmax; for Vd: read-out: Vss
Excerpt: (§1) There were 3 rats/group. All animals were food fasted overnight. […] The predose sample was collected from the JVC.
(§2) Following the last collection point, the animals were euthanized.

[4] = Pharmacokinetics following oral (PO) dosing; type: in vivo, Sprague-Dawley rats; conditions: male, Sprague-Dawley, rat, plasma, po, 5 mg/kg; for Cmax: read-out: Cmax; for half-life: read-out: T1/2(2); for Tmax: read-out: Tmax (converted)
Excerpt: as §1, §2

[5] = hydroxycodone series, 1 mg/kg IV, Mean ± SD
[6] = hydroxycodone series, 1 mg/kg IV, Mean ± SD, read-out: T1/2(z)
[7] = CHO-K1 membranes, [3H]DAMGO 6 nM, read-out: Ki, Mu opioid receptor
[8] = maximal response at the highest tested concentration
[9] = read-out: EC50, mu opioid receptor

T1 sequence (P35372 whole entry): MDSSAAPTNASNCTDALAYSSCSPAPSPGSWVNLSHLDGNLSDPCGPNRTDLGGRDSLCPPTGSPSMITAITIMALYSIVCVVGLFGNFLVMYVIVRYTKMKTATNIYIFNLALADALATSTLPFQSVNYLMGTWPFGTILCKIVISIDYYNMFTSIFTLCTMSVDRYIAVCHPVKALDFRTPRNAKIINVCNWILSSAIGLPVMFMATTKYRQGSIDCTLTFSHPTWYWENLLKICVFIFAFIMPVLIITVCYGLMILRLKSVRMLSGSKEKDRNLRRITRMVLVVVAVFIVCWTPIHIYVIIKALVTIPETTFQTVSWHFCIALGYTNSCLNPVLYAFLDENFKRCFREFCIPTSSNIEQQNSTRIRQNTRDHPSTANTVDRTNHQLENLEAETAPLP

COCCOCCOCCOCCOC1C=CC2C3Cc4ccc(O)c5c4C2(CCN3C)C1O5 (stereo not drawn) [α-6-mPEG4-O-morphine]
Ki (human mu opioid receptor [1]): 23.1 nM
EC50 (human mu opioid receptor [2]): 128 nM
Emax (human mu opioid receptor [2]): 100%

COCCOCCOCCOCCOCCOC1CCC2(O)C3Cc4ccc(OC)c5c4C2(CCN3C)C1O5 (stereo not drawn) [α-6-mPEG5-O-hydroxycodone, α-6-mPEG5-O-oxycodone]
AUC [3, 5]: 282 ng·h/mL
AUC(0-inf) [3, 5]: 295 ng·h/mL
MRT last [3, 5]: 0.77 h
clearance [3, 5]: 57 ± 6.07 mL/min/kg
Cmax [3, 5]: 622 ± 39.7 ng/mL
half-life [3, 6]: 1.03 ± 0.0642 h
Vd [3, 5]: 3.3 ± 0.184 L/kg
Ki (human mu opioid receptor [1]; [7]): 1860 nM
Emax (human mu opioid receptor [2]; [8]): 108%
EC50 (human mu opioid receptor [2]; [9]): 5040 nM

COCCOCCOCCOCCOCCOC1C=CC2C3Cc4ccc(O)c5c4C2(CCN3C)C1O5 (stereo not drawn) [α-6-mPEG5-O-morphine]
Ki (human mu opioid receptor [1]): 39.4 nM
EC50 (human mu opioid receptor [2]): 157 nM
Emax (human mu opioid receptor [2]): 95%

COCCOCCOCCOCCOCCOCCOC1C=CC2C3Cc4ccc(O)c5c4C2(CCN3C)C1O5 (stereo not drawn) [α-6-mPEG6-O-morphine]
Ki (human mu opioid receptor [1]): 73 nM
EC50 (human mu opioid receptor [2]): 415 nM
Emax (human mu opioid receptor [2]): 98%

COCCOCCOCCOCCOCCOCCOCCOC1C=CC2C3Cc4ccc(OC)c5c4C2(CCN3C)C1O5 (stereo not drawn) [α-6-mPEG7-O-codeine]
AUC ([3]; iv, 1 mg/kg): 212 ng·h/mL
AUC(0-inf) ([3]; iv, 1 mg/kg): 228 ng·h/mL
MRT last ([3]; iv, 1 mg/kg): 0.845 h
clearance ([3]; iv, 1 mg/kg): 73.1 ± 1.73 mL/min/kg
Cmax ([3]; iv, 1 mg/kg): 443 ± 43.3 ng/mL
half-life ([3]; iv, 1 mg/kg, read-out: T1/2(2)): 1.24 ± 0.096 h
Vd ([3]; iv, 1 mg/kg): 5.2 ± 0.596 L/kg
Ki (human mu opioid receptor [1]; [7]): 9960 nM
AUC [4]: 285 ng·h/mL
AUC(0-inf) [4]: 267 ng·h/mL
MRT last [4]: 2.85 h
bioavailability [4]: 26.9%
Cmax [4]: 76.6 ± 12.8 ng/mL
half-life [4]: 1.63 h
Tmax [4]: 2 h
Emax (human mu opioid receptor [2]; [8]): 75%
EC50 (human mu opioid receptor [2]; [9]): 44700 nM

COCCOCCOCCOCCOCCOCCOCCOC1C=CC2C3Cc4ccc(O)c5c4C2(CCN3C)C1O5 (stereo not drawn) [α-6-mPEG7-O-morphine]
Ki (human mu opioid receptor [1]): 56.9 nM
EC50 (human mu opioid receptor [2]): 508 nM
Emax (human mu opioid receptor [2]): 90%

COCCOCCOCCOCCOCCOCCOCCOCCOCCOC1C=CC2C3Cc4ccc(O)c5c4C2(CCN3C)C1O5 (stereo not drawn) [α-6-mPEG9-O-Morphine, α-6-mPEG-O9-morphine]
Ki (human mu opioid receptor [1]; [7]): 111 nM
Emax (human mu opioid receptor [2]; [8]): 87%
EC50 (human mu opioid receptor [2]; [9]): 1060 nM

COCCOCCOCCOCCOCCOCCOCCOCCOCCOC1C=CC2C3Cc4ccc(OC)c5c4C2(CCN3C)C1O5 (stereo not drawn) [α-6-mPEG9-O-codeine]
AUC ([3]; iv, 1 mg/kg): 297 ng·h/mL
AUC(0-inf) ([3]; iv, 1 mg/kg): 347 ng·h/mL
MRT last ([3]; iv, 1 mg/kg): 0.953 h
clearance ([3]; iv, 1 mg/kg): 48.6 ± 6.74 mL/min/kg
Cmax ([3]; iv, 1 mg/kg): 730 ± 68 ng/mL
half-life ([3]; iv, 1 mg/kg, read-out: T1/2(2)): 1.82 ± 0.03 h
Vd ([3]; iv, 1 mg/kg): 5.18 ± 0.538 L/kg
Ki (human mu opioid receptor [1]; [7]): 9980 nM
AUC [4]: 122 ng·h/mL
AUC(0-inf) [4]: 114 ng·h/mL
MRT last [4]: 2.98 h
bioavailability [4]: 8.22%
Cmax [4]: 31.5 ± 8.43 ng/mL
half-life [4]: 2.38 h
Tmax [4]: 0.25 h
Emax (human mu opioid receptor [2]; [8]): 80%
EC50 (human mu opioid receptor [2]; [9]): 48200 nM

COCCOCCOCCOCCOCCOCCOCCOCCOCCOC1CCC2(O)C3Cc4ccc(OC)c5c4C2(CCN3C)C1O5 (stereo not drawn) [α-6-mPEG9-O-hydroxycodone, α-6-mPEG9-O-oxycodone]
mean t1/2 value, times that of the parent compound ([3]; 1 mg/kg IV): 3 times
AUC [3, 5]: 277 ng·h/mL
AUC(0-inf) [3, 5]: 350 ng·h/mL
MRT last [3, 5]: 0.878 h
clearance [3, 5]: 48.9 ± 9.41 mL/min/kg
Cmax [3, 5]: 955 ± 149 ng/mL
half-life [3, 6]: 2.38 ± 0.238 h
Vd [3, 5]: 6.35 ± 0.349 L/kg
Emax (human mu opioid receptor [2]; [8]): 95%
